{"source": "ChEMBL document CHEMBL3991601", "about": "“The target landscape of clinical kinase drugs” (Science, 2017)", "key": {"[1]": {"biological_target": "DnaJ homolog subfamily A member 1 (Homo sapiens, UniProt P31689)", "sequence (P31689 whole entry)": "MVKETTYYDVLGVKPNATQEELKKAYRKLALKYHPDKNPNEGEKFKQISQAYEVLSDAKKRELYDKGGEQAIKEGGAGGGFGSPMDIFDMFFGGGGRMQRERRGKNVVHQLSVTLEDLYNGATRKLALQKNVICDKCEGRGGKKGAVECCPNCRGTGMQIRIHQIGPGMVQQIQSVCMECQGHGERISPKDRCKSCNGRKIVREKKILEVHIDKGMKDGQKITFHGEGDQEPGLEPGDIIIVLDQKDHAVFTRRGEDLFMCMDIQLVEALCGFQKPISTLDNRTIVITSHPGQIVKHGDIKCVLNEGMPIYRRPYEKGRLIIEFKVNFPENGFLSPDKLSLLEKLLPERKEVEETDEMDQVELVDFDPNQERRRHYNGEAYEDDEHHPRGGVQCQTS"}, "[2]": {"biological_target": "T1, STE20-related kinase adapter protein alpha (Homo sapiens, UniProt Q7RTN6)", "T1 sequence (Q7RTN6 whole entry)": "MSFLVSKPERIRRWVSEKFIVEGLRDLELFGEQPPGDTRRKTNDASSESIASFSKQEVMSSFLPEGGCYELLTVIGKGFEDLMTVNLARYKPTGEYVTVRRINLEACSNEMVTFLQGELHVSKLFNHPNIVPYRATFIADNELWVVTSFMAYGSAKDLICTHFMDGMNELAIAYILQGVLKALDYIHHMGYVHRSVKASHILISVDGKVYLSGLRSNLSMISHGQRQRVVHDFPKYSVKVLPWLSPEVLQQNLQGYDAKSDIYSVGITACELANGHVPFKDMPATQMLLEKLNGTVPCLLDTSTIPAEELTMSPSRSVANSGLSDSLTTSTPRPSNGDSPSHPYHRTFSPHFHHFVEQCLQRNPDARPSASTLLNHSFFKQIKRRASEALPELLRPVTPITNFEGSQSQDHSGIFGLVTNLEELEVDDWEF"}, "Midasin": {"biological_target": "Midasin (Homo sapiens, UniProt Q9NU22)"}, "[3]": {"biological_target": "T2, Interleukin-1 receptor-associated kinase 4 (Homo sapiens, UniProt Q9NWZ3)", "T2 sequence (Q9NWZ3 whole entry)": "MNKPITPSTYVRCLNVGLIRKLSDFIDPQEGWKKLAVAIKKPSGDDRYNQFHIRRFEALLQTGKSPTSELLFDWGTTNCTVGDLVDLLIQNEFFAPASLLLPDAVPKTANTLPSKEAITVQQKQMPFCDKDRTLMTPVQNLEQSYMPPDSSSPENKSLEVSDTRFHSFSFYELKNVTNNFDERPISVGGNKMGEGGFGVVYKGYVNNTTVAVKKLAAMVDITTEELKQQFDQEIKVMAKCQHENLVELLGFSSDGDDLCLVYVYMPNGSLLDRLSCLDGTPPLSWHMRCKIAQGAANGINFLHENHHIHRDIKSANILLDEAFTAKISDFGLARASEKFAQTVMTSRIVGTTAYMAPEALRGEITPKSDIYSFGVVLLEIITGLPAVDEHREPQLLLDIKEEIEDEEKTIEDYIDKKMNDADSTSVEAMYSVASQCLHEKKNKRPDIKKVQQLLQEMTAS"}, "[4]": {"biological_target": "T3, Dynamin-like GTPase OPA1, mitochondrial (Homo sapiens, UniProt O60313)", "T3 sequence (O60313 whole entry)": "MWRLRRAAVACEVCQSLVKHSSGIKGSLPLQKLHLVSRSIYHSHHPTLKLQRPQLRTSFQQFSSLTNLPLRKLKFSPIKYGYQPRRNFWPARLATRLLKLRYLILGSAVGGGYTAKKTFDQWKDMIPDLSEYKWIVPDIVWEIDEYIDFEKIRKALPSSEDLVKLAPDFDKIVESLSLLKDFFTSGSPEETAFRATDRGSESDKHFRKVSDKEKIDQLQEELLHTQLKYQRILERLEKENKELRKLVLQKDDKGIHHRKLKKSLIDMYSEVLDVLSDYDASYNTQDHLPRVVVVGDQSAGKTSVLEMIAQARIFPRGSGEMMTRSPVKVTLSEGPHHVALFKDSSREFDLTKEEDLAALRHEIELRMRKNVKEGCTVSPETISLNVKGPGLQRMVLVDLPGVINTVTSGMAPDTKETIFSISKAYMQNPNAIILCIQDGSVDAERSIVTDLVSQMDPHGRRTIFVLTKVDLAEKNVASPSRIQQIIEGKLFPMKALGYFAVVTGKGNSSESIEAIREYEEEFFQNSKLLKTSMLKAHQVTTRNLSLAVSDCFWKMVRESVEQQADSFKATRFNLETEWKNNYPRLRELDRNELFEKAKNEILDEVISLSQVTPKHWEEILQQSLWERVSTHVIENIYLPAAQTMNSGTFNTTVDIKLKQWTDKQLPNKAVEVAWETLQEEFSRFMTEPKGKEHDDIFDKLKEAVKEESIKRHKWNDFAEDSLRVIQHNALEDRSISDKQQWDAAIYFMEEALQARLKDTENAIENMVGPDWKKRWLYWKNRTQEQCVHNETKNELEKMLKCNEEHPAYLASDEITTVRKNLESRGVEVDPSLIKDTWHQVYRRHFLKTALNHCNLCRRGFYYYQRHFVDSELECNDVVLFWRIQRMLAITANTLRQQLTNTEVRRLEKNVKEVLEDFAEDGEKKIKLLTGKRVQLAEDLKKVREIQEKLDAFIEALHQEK"}, "Ephrin type-B receptor 6": {"biological_target": "T4, Ephrin type-B receptor 6 (Homo sapiens, UniProt O15197)", "T4 sequence (O15197 whole entry)": "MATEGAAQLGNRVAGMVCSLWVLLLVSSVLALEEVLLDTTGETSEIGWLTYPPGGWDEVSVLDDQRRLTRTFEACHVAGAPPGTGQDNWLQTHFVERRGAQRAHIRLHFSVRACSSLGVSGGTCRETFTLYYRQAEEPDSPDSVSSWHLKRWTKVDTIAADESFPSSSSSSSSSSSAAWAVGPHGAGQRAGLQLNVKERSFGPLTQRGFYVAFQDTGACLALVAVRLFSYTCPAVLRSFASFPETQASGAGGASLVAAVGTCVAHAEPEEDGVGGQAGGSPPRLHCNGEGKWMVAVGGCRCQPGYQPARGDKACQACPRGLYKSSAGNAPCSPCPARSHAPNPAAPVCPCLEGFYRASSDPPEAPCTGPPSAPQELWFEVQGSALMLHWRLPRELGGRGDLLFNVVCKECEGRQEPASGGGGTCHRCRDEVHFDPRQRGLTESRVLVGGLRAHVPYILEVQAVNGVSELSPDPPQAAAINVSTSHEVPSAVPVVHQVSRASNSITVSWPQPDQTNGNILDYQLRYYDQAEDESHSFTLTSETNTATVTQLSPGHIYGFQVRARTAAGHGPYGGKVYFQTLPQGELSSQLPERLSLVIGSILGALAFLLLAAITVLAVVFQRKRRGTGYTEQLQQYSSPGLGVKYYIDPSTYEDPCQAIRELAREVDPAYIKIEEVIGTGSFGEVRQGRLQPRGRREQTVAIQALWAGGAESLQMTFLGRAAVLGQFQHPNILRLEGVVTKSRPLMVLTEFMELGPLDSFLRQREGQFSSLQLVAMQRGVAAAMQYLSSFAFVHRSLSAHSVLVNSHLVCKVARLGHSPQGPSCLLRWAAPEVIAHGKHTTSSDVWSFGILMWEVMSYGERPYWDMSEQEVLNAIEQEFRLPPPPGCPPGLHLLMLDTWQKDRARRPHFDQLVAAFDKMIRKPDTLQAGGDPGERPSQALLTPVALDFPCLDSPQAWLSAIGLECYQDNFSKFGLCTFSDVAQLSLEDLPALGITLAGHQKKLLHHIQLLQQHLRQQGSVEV"}, "[5]": {"biological_target": "cAMP-dependent protein kinase catalytic subunit alpha (Homo sapiens, UniProt P17612)"}}, "note": "Activity calls are given as the source filed them. Note: in the data inactive means no Kd found up to 30 µM.", "data": [{"smiles": "O[C@H]1CC[C@H](Nc2ncc3nc(Nc4c(F)cc(F)cc4F)n([C@H]4CCOC4)c3n2)CC1", "note": "[TANZISERTIB]", "values": [{"measurement": "Kd", "setting": "[1]", "result": "> 30 µM (inactive)"}, {"measurement": "Kd", "setting": "[2]", "result": "> 30 µM (inactive)"}, {"measurement": "Kd", "setting": "Midasin", "result": "> 30 µM (inactive)"}, {"measurement": "Kd", "setting": "[3]", "result": "> 30 µM (inactive)"}, {"measurement": "Kd", "setting": "[4]", "result": "> 30 µM (inactive)"}, {"measurement": "Kd", "setting": "Ephrin type-B receptor 6", "result": "> 30 µM (inactive)"}, {"measurement": "Kd", "setting": "[5]", "result": "> 30 µM (inactive)"}]}, {"smiles": "Cc1cc(-c2cc(OC(=O)c3ccccc3)ccc2Cl)cc2nnc(Nc3ccc(OCCN4CCCC4)cc3)nc12", "note": "[TG100-801]", "values": [{"measurement": "Kd", "setting": "[1]", "result": "> 30 µM (inactive)"}, {"measurement": "Kd", "setting": "[2]", "result": "> 30 µM (inactive)"}, {"measurement": "Kd", "setting": "Midasin", "result": "> 30 µM (inactive)"}, {"measurement": "Kd", "setting": "[3]", "result": "> 30 µM (inactive)"}, {"measurement": "Kd", "setting": "[4]", "result": "> 30 µM (inactive)"}, {"measurement": "Kd", "setting": "Ephrin type-B receptor 6", "result": "> 30 µM (inactive)"}, {"measurement": "Kd", "setting": "[5]", "result": "> 30 µM (inactive)"}]}, {"smiles": "C[C@@H]1COC(Nc2ccc3ncnc(Nc4ccc(OCc5nccs5)c(Cl)c4)c3c2)=N1", "note": "[VARLITINIB]", "values": [{"measurement": "Kd", "setting": "[1]", "result": "> 30 µM (inactive)"}, {"measurement": "Kd", "setting": "[2]", "result": "> 30 µM (inactive)"}, {"measurement": "Kd", "setting": "Midasin", "result": "> 30 µM (inactive)"}, {"measurement": "Kd", "setting": "[3]", "result": "> 30 µM (inactive)"}, {"measurement": "Kd", "setting": "[4]", "result": "> 30 µM (inactive)"}, {"measurement": "Kd", "setting": "Ephrin type-B receptor 6", "result": "> 30 µM (inactive)"}, {"measurement": "Kd", "setting": "[5]", "result": "> 30 µM (inactive)"}]}, {"smiles": "CNC(=O)c1cccc(-c2ccc3c(N4CCOC[C@@H]4C)nc(N4CCOC[C@@H]4C)nc3n2)c1", "note": "[VISTUSERTIB]", "values": [{"measurement": "Kd", "setting": "[1]", "result": "> 30 µM (inactive)"}, {"measurement": "Kd", "setting": "[2]", "result": "> 30 µM (inactive)"}, {"measurement": "Kd", "setting": "Midasin", "result": "> 30 µM (inactive)"}, {"measurement": "Kd", "setting": "[3]", "result": "> 30 µM (inactive)"}, {"measurement": "Kd", "setting": "[4]", "result": "> 30 µM (inactive)"}, {"measurement": "Kd", "setting": "Ephrin type-B receptor 6", "result": "> 30 µM (inactive)"}, {"measurement": "Kd", "setting": "[5]", "result": "> 30 µM (inactive)"}]}, {"smiles": "NC(=O)c1ccc(N(C(N)=O)c2c(F)cccc2F)nc1-c1ccc(F)cc1F", "note": "[VX-702]", "values": [{"measurement": "Kd", "setting": "[1]", "result": "> 30 µM (inactive)"}, {"measurement": "Kd", "setting": "[2]", "result": "> 30 µM (inactive)"}, {"measurement": "Kd", "setting": "Midasin", "result": "> 30 µM (inactive)"}, {"measurement": "Kd", "setting": "[3]", "result": "> 30 µM (inactive)"}, {"measurement": "Kd", "setting": "[4]", "result": "> 30 µM (inactive)"}, {"measurement": "Kd", "setting": "Ephrin type-B receptor 6", "result": "> 30 µM (inactive)"}, {"measurement": "Kd", "setting": "[5]", "result": "> 30 µM (inactive)"}]}, {"smiles": "COc1cc2ncnc(Nc3ccc(O)cc3)c2cc1OC", "note": "[WHI-P131]", "values": [{"measurement": "Kd", "setting": "[1]", "result": "> 30 µM (inactive)"}, {"measurement": "Kd", "setting": "[2]", "result": "> 30 µM (inactive)"}, {"measurement": "Kd", "setting": "Midasin", "result": "> 30 µM (inactive)"}, {"measurement": "Kd", "setting": "[3]", "result": "34.1 µM (active)"}, {"measurement": "Kd", "setting": "[4]", "result": "> 30 µM (inactive)"}, {"measurement": "Kd", "setting": "Ephrin type-B receptor 6", "result": "> 30 µM (inactive)"}, {"measurement": "Kd", "setting": "[5]", "result": "> 30 µM (inactive)"}]}]}
